# Assay results published in patent US9822069B2, “Urea derivative or pharmacologically acceptable salt thereof” (KYORIN PHARMACEUTICAL CO. LTD., priority 2013, dated 2017).
# Target: T1, human FPRL1 (Homo sapiens, UniProt P25090)
# T1 construct: expressed in transfected cells; host or cells: HEK293 (JCRB9068, NIBIO), transient transfection with pCMV-script vectors using Lipofectamine 2000
# T1 sequence (P25090 1-351): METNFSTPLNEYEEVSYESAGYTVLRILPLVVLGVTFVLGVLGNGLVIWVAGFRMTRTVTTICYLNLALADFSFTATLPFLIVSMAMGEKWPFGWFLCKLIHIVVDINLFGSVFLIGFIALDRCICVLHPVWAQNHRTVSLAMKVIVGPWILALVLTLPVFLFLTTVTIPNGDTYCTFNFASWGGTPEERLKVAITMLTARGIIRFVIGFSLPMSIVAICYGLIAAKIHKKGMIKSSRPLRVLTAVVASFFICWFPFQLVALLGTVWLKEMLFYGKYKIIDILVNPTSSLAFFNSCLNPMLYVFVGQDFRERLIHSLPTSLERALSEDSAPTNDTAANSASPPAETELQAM
# Assay: Measurement test of agonist activity on human FPRL1 (test of calcium mobilization in cell, HEK293 with human FPRL1 and Gα15 expression vectors)
# Assay type: cell-based
# Details: calcium mobilization in HEK293 cells with human FPRL1 and Gα15 expression vectors
# How it was run: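 HEK293 transiently co-transfected with human FPRL1 and Gα15, plated 24 h before assay, loaded with Fluo-4 NW dye plus probenecid. Compounds in eight 10-fold dilutions (DMSO stocks 10^−2 to 10^−9 M, then diluted 100-fold in assay buffer); calcium mobilization read on Flexstation for EC50.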
row,EC50,SMILES
1,0.33 nM,"O=C(Nc1ccc(F)cc1)N[C@@H]1C(=O)N(CCO)C[C@H]1c1cc2c(cc1F)OCC2 (single isomer, unassigned) [EXAMPLE 24-19, (−)-1-[(3S*,4R*)-4-(6-fluoro-2,3-dihydrobenzofuran-5-yl)-1-(2-hydroxyethyl)-2-oxopyrrolidin-3-yl]-3-(4-fluorophenyl)urea]"
2,0.15 nM,"CCOC(=O)CN1C[C@@H](c2cc3c(cc2F)OCC3)[C@H](NC(=O)Nc2ccc(F)cc2)C1=O (single isomer, unassigned) [EXAMPLE 24-20, (−)-2-{(3S*,4R*)-4-(6-fluoro-2,3-dihydrobenzofuran-5-yl)-3-[3-(4-fluorophenyl)ureido]-2-oxopyrrolidin-1-yl}acetic acid ethyl ester]"
3,0.45 nM,"CCOC(=O)C(C)(C)N1C[C@@H](c2cc3c(cc2F)OCC3)[C@H](NC(=O)Nc2ccc(F)cc2)C1=O (single isomer, unassigned) [EXAMPLE 24-21, (−)-2-{(3S*,4R*)-4-(6-fluoro-2,3-dihydrobenzofuran-5-yl)-3-[3-(4-fluorophenyl)ureido]-2-oxopyrrolidin-1-yl}-2-methylpropanoic acid ethyl ester]"
4,1.32 nM,"O=C(Nc1ccc(F)cc1)N[C@@H]1C(=O)N(CC2CC2)C[C@H]1c1cc2c(cc1F)OCC2 (single isomer, unassigned) [EXAMPLE 24-22, (−)-1-[(3S*,4R*)-1-(cyclopropylmethyl)-4-(6-fluoro-2,3-dihydrobenzofuran-5-yl)-2-oxopyrrolidin-3-yl]-3-(4-fluorophenyl)urea]"
5,0.8 nM,"N#CCN1C[C@@H](c2cc3c(cc2F)OCC3)[C@H](NC(=O)Nc2ccc(F)cc2)C1=O (single isomer, unassigned) [EXAMPLE 24-23, (−)-1-[(3S*,4R*)-1-(cyanomethyl)-4-(6-fluoro-2,3-dihydrobenzofuran-5-yl)-2-oxopyrrolidin-3-yl]-3-(4-fluorophenyl)urea]"
6,0.46 nM,"Cc1nnc(CN2C[C@@H](c3cc4c(cc3F)OCC4)[C@H](NC(=O)Nc3ccc(F)cc3)C2=O)o1 (single isomer, unassigned) [EXAMPLE 24-24, (−)-1-{(3S*,4R*)-4-(6-fluoro-2,3-dihydrobenzofuran-5-yl)-1-[(5-methyl-1,3,4-oxadiazol-2-yl)methyl]-2-oxopyrrolidin-3-yl}-3-(4-fluorophenyl)urea]"
7,3.14 nM,"COc1ccc([C@H]2CN(OC)C(=O)[C@@H]2NC(=O)Nc2ccc(F)cc2)cc1 (single isomer, unassigned) [EXAMPLE 27-1, (+)-1-(4-Fluorophenyl)-3-[(3R*,4S*)-1-methoxy-4-(4-methoxyphenyl)-2-oxopyrrolidin-3-yl]urea]"
8,0.1 nM,"COc1cc(F)c([C@@H]2CN(OC)C(=O)[C@H]2NC(=O)Nc2ccc(F)cc2)c(F)c1 (single isomer, unassigned) [EXAMPLE 27-2, (−)-1-[(3S*,4R*)-4-(2,6-Difluoro-4-methoxyphenyl)-1-methoxy-2-oxopyrrolidin-3-yl]-3-(4-fluorophenyl)urea]"
9,1.64 nM,"C#Cc1ccc(NC(=O)N[C@@H]2C(=O)NC[C@H]2c2c(F)cc(OC)cc2F)cc1 (single isomer, unassigned) [EXAMPLE 28-4, (−)-1-[(3S*,4R*)-4-(2,6-Difluoro-4-methoxyphenyl)-2-oxopyrrolidin-3-yl]-3-(4-ethynylphenyl) urea]"
10,1.42 nM,"CNc1cc(F)c([C@@H]2CNC(=O)[C@H]2NC(=O)Nc2ccc(F)cc2)c(F)c1 (single isomer, unassigned) [EXAMPLE 28-5, (−)-1-{(3S*,4R*)-4-[2,6-Difluoro-4-(methylamino)phenyl]-2-oxopyrrolidin-3-yl}-3-(4-fluorophenyl) urea]"
11,1.94 nM,"NC(=O)c1cc(F)c([C@@H]2CNC(=O)[C@H]2NC(=O)Nc2ccc(F)cc2)c(F)c1 (single isomer, unassigned) [EXAMPLE 31-1, (−)-3,5-Difluoro-4-{(3R*,4S*)-4-[3-(4-fluorophenyl)ureido]-5-oxopyrrolidin-3-yl}benzamide]"
12,0.03 nM,"CO/N=C1\NC[C@@H](c2ccc(OC)cc2F)[C@@H]1NC(=O)Nc1ccc(F)cc1 (single isomer, unassigned) [EXAMPLE 32-2, (−)-1-[(3S*,4R*,Z)-4-(2-fluoro-4-methoxyphenyl)-2-(methoxyimino)pyrrolidin-3-yl]-3-(4-fluorophenyl)urea]"
13,0.17 nM,"COc1ccc([C@@H]2CN/C(=N\OCCO)[C@H]2NC(=O)Nc2ccc(F)cc2)cc1 (single isomer, unassigned) [EXAMPLE 32-4, (−)-1-(4-fluorophenyl)-3-{(3S*,4R*,Z)-2-[(2-hydroxyethoxy)imino]-4-(4-methoxyphenyl)pyrrolidin-3-yl}urea]"
14,0.44 nM,"CO/N=C1\NC[C@@H](c2c(F)cc(OC)cc2F)[C@@H]1NC(=O)Nc1ccc(C)cc1 (single isomer, unassigned) [EXAMPLE 32-8, (−)-1-[(3S*,4R*,Z)-4-(2,6-difluoro-4-methoxyphenyl)-2-(methoxyimino)pyrrolidin-3-yl]-3-(p-tolyl)urea]"
15,0.3 nM,"CO/N=C1\NC[C@@H](c2c(F)cc(OC)cc2F)[C@@H]1NC(=O)Nc1ccc(C#N)cc1 (single isomer, unassigned) [EXAMPLE 32-9, (−)-1-(4-cyanphenyl)-3-[(3S*,4R*,Z)-4-(2,6-difluoro-4-methoxyphenyl)-2-(methoxyimino)pyrrolidin-3-yl]urea]"
16,0.53 nM,"CO/N=C1\NC[C@@H](c2c(F)cc(OC)cc2F)[C@@H]1NC(=O)Nc1ccc(Cl)nc1 (single isomer, unassigned) [EXAMPLE 32-10, (−)-1-(6-chloropyridin-3-yl)-3-[(3S*,4R*,Z)-4-(2,6-difluoro-4-methoxyphenyl)-2-(methoxyimino)pyrrolidin-3-yl]urea]"
17,0.88 nM,"CO/N=C1\NC[C@@H](c2c(F)cc(OC)cc2F)[C@@H]1NC(=O)Nc1cc2ccccc2s1 (single isomer, unassigned) [EXAMPLE 32-11, (−)-1-(benzo[b]thiophen-2-yl)-3-[(3S*,4R*,Z)-4-(2,6-difluoro-4-methoxyphenyl)-2-(methoxyimino)pyrrolidin-3-yl]urea]"
18,0.25 nM,"COc1cc(F)c([C@@H]2CN/C(=N\OCCO)[C@H]2NC(=O)Nc2ccc(C#N)cc2)c(F)c1 (single isomer, unassigned) [EXAMPLE 32-13, (−)-1-(4-cyanophenyl)-3-{(3S*,4R*,Z)-4-(2,6-difluoro-4-methoxyphenyl)-2-[(2-hydroxyethoxy)imino]pyrrolidin-3-yl}urea]"
19,0.82 nM,"COc1cc(F)c([C@@H]2CN/C(=N\OCCO)[C@H]2NC(=O)Nc2ccc(Cl)nc2)c(F)c1 (single isomer, unassigned) [EXAMPLE 32-14, (−)-1-(6-chloropyridin-3-yl)-3-{(3S*,4R*,Z)-4-(2,6-difluoro-4-methoxyphenyl)-2-[(2-hydroxyethoxy)imino]pyrrolidin-3-yl}urea]"
20,0.27 nM,"COc1cc(F)c([C@@H]2CN/C(=N\OCCO)[C@H]2NC(=O)Nc2cc3ccccc3s2)c(F)c1 (single isomer, unassigned) [EXAMPLE 32-15, (−)-1-(benzo[b]thiophen-2-yl)-3-{(3S*,4R*,Z)-4-(2,6-difluoro-4-methoxyphenyl)-2-[(2-hydroxyethoxy)imino]pyrrolidin-3-yl}urea]"
21,0.54 nM,"COc1cc(F)c([C@@H]2CN=C(Nc3ccn(C)n3)[C@H]2NC(=O)Nc2ccc(F)cc2)c(F)c1 (single isomer, unassigned) [EXAMPLE 32-16, (−)-1-{(3R*,4S*)-3-(2,6-difluoro-4-methoxyphenyl)-5-[(1-methyl-1H-pyrazol-3-yl)amino]-3,4-dihydro-2H-pyrrol-4-yl}-3-(4-fluorophenyl)urea]"
22,0.57 nM,"COc1cc(F)c([C@@H]2CN/C(=N\N3CCOCC3)[C@H]2NC(=O)Nc2ccc(F)cc2)c(F)c1 (single isomer, unassigned) [EXAMPLE 32-17, (−)-1-[(3S*,4R*,Z)-4-(2,6-difluoro-4-methoxyphenyl)-2-(morpholinoimino)pyrrolidin-3-yl]-3-(4-fluorophenyl)urea]"
23,0.13 nM,"O=C(Nc1ccc(F)cc1)N[C@@H]1/C(=N/OCCO)NC[C@H]1c1cc2c(cc1F)OCC2 (single isomer, unassigned) [EXAMPLE 32-19, (−)-1-((3S*,4R*,Z)-4-(6-fluoro-2,3-dihydrobenzofuran-5-yl)-2-[(2-hydroxyethoxy)imino]pyrrolidin-3-yl)-3-(4-fluorophenyl)urea]"
24,1.14 nM,"COc1ccc([C@@H]2CN/C(=N\O)[C@H]2NC(=O)Nc2ccc(F)cc2)cc1 (single isomer, unassigned) [EXAMPLE 33-1, (−)-1-(4-Fluorophenyl)-3-[(3S*,4R*,Z)-2-(2-hydroxyimino)-4-(4-methoxyphenyl)pyrrolidin-3-yl]urea]"
25,0.03 nM,"COc1cc(F)c([C@@H]2CN/C(=N\O)[C@H]2NC(=O)Nc2ccc(F)cc2)c(F)c1 (single isomer, unassigned) [EXAMPLE 33-2, (−)-1-((3S*,4R*,Z)-4-(2,6-Difluoro-4-methoxyphenyl)-2-(hydroxyimino)pyrrolidin-3-yl)-3-(4-fluorophenyl)urea]"
26,0.01 nM,"COc1ccc([C@@H]2CN(CCO)C(=O)[C@H]2NC(=O)Nc2ccc(Cl)cc2)cc1 (single isomer, unassigned) [Example 15-1A, (−)-trans-1-(4-Chlorophenyl)-3-[1-(2-hydroxyethyl)-4-(4-methoxyphenyl)-2-oxopyrrolidin-3-yl]urea]"
